One data set relates to apelin receptor. Conditions: SAR study of short ELA fragments; cited from earlier work.
The next data set has as its system furin. As to the kind of experiment: buffer-based ELA-32 digestion study. Conditions: cited from earlier work.
Data set [1] in a line: human plasma, pooled from four healthy human donors. Conditions: 37 °C, up to 240 min.
The next data set is described as follows: rat plasma in vitro. Particulars: cited from earlier work.
The nature of data set [2]: human kidney homogenised in 50 mM HEPES solution, pH 7.4. Particulars: 37 °C, up to 120 min.

“Also recorded” adds a separate entry of the source.

For the sequence “LHSRVPFP [ELA-8, ELA-32 fragment from loss of N-terminal amino acids]”, in the data set on apelin receptor, the “binding to the apelin receptor (in words)” value is “completely lost its ability to bind the apelin receptor”.

Consider QRPVNLTMRRKLRKHNCLQRRCMPLHSRVPFP, for which the fragment found entry in the data set on furin is “ELA-11”; in the data set “rat plasma in vitro”, “ELA-22; also recorded: ELA-32(1-9)”; in data set [2] it was “ELA-23, earliest time points; also recorded: ELA-17, 60 min”. For the same sequence, the cleaved bond entry in data set [1] is “R-R and L-R, major, 60 min and R-K, first_seen, within 2 min and H-N, major, 60 min and Arg21-Cys22, major, 60 min and proline-phenylalanine”.
